Assay results from PubChem BioAssay AID256 (DTP/NCI, 2004).
Where “and” joins values, the source holds several entries; their conditions need not be identical. Equal entries are not always repeated. Toxic doses and inconclusive results are not listed.

Tested on: CD2F1 mice, L1210 leukemia ip, survival T/C
Test: NCI In Vivo Anticancer Drug Screen. Data for tumor model L1210 Leukemia (intraperitoneal) in CD2F1 (CDF1) mice
Details: higher = longer survival
Outline: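 In this screen, transplantable tumors were grown in mice given either the compound or its vehicle. Results were expressed as the treated measurement relative to the control measurement.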

[1] = endpoint: mean survival time, dose: 100.0 mg/kg/injection, schedule: Q01DX001 (ip), vehicle: saline with Tween-80
[2] = endpoint: mean survival time, dose: 200.0 mg/kg/injection, schedule: Q01DX001 (ip), vehicle: saline with Tween-80
[3] = endpoint: mean survival time, dose: 400.0 mg/kg/injection, schedule: Q01DX001 (ip), vehicle: saline with Tween-80
[4] = endpoint: mean survival time, dose: 100.0 mg/kg/injection, schedule: Q01DX001 (ip), vehicle: saline
[5] = endpoint: mean survival time, dose: 200.0 mg/kg/injection, schedule: Q01DX001 (ip), vehicle: saline
[6] = endpoint: mean survival time, dose: 400.0 mg/kg/injection, schedule: Q01DX001 (ip), vehicle: saline
[7] = endpoint: mean survival time, dose: 75.0 mg/kg/injection, schedule: Q04DX003 (ip), vehicle: saline
[8] = endpoint: mean survival time, dose: 100.0 mg/kg/injection, schedule: Q04DX003 (ip), vehicle: saline
[9] = endpoint: mean survival time, dose: 100.0 mg/kg/injection, schedule: Q04DX003 (ip), vehicle: saline with Tween-80
[10] = endpoint: mean survival time, dose: 200.0 mg/kg/injection, schedule: Q04DX003 (ip), vehicle: saline with Tween-80
[11] = endpoint: mean survival time, dose: 400.0 mg/kg/injection, schedule: Q04DX003 (ip), vehicle: saline with Tween-80
[12] = endpoint: median survival time, dose: 50.0 mg/kg/injection, schedule: Q01DX005 (ip), vehicle: saline
[13] = endpoint: mean survival time, dose: 12.5 mg/kg/injection, schedule: Q01DX009 (ip), vehicle: saline with Tween-80
[14] = endpoint: mean survival time, dose: 25.0 mg/kg/injection, schedule: Q01DX009 (ip), vehicle: saline with Tween-80
[15] = endpoint: mean survival time, dose: 50.0 mg/kg/injection, schedule: Q01DX009 (ip), vehicle: saline with Tween-80
[16] = endpoint: mean survival time, dose: 100.0 mg/kg/injection, schedule: Q01DX009 (ip), vehicle: saline with Tween-80
[17] = endpoint: mean survival time, dose: 200.0 mg/kg/injection, schedule: Q01DX009 (ip), vehicle: saline with Tween-80
[18] = endpoint: mean survival time, dose: 100.0 mg/kg/injection, schedule: Q01DX009 (ip), vehicle: saline

CC(CO)CCC(=O)C(C)C1C(=O)CC2[C@H]3CC=C4C[C@H](O)CC[C@@]4(C)C3CC[C@@]12C (some centres undefined)
T/C (endpoint: mean survival time, dose: 50.0 mg/kg/injection, schedule: Q01DX001 (ip), vehicle: saline with Tween-80): 94 % of control | T/C [1]: 97 % of control | T/C [2]: 95 % of control

CCCCCCCCCCCCCCCCCCCCCC(=O)CCCCCCCCCCCCCCCCCCCCC
T/C [1]: 86 % of control | T/C [2]: 93 % of control | T/C [3]: 101 % of control

O=C1CCC(=O)N1C1C=CC=CC=C1
T/C (endpoint: mean survival time, dose: 50.0 mg/kg/injection, schedule: Q04DX003 (ip), vehicle: acetone): 98 % of control | T/C (endpoint: mean survival time, dose: 100.0 mg/kg/injection, schedule: Q04DX003 (ip), vehicle: acetone): 107 % of control

CCCC(C)N (centres undefined)
T/C [4]: 98 % of control | T/C [5]: 98 % of control | T/C [6]: 94 % of control

CC(C)=NC(=O)NO.[Cl][Co][Cl]
T/C (endpoint: mean survival time, dose: 50.0 mg/kg/injection, schedule: Q04DX003 (ip), vehicle: saline): 109 % of control | T/C [7]: 113 % of control | T/C [8]: 100 % of control | T/C (endpoint: mean survival time, dose: 125.0 mg/kg/injection, schedule: Q04DX003 (ip), vehicle: saline): 113 % of control

COc1cc2c(c(OC)c1OC)-c1ccc(OC)c(=O)cc1[C@@H](N)CC2
T/C (endpoint: median survival time, dose: 1.5 mg/kg/injection, schedule: Q01DX009 (ip), vehicle: saline): 120 % of control

O=c1cc(-c2ccccc2)nc2c(Cl)cc(Cl)cn12
T/C [1]: 96 % of control | T/C [2]: 93 % of control | T/C [3]: 96 % of control

CCCSC(=O)Nc1cccc(OC(=O)NC)c1
T/C [9]: 99 % of control | T/C [10]: 94 % of control | T/C [11]: 99 % of control

CN(C)CCCN=c1c2ccccc2n(C)c2[nH]c(=O)n(C)c(=O)c12
T/C (endpoint: median survival time, dose: 3.75 mg/kg/injection, schedule: Q01DX005 (ip), vehicle: saline): 105 % of control | T/C (endpoint: median survival time, dose: 7.5 mg/kg/injection, schedule: Q01DX005 (ip), vehicle: saline): 109 % of control | T/C (endpoint: median survival time, dose: 10.8 mg/kg/injection, schedule: Q01DX005 (ip), vehicle: saline): 107 % of control | T/C (endpoint: median survival time, dose: 15.0 mg/kg/injection, schedule: Q01DX005 (ip), vehicle: saline): 111 % of control and 112 % of control | T/C (endpoint: median survival time, dose: 18.0 mg/kg/injection, schedule: Q01DX005 (ip), vehicle: saline): 123 % of control | T/C (endpoint: median survival time, dose: 30.0 mg/kg/injection, schedule: Q01DX005 (ip), vehicle: saline): 116 % of control and 124 % of control | T/C [12]: 119 % of control | T/C (endpoint: median survival time, dose: 60.0 mg/kg/injection, schedule: Q01DX005 (ip), vehicle: saline): 120 % of control and 101 % of control | T/C (endpoint: median survival time, dose: 120.0 mg/kg/injection, schedule: Q01DX005 (ip), vehicle: saline): 119 % of control

CC(Cc1ccccc1)NC(C#N)c1ccccc1 (centres undefined)
T/C [13]: 102 % of control | T/C [14]: 98 % of control | T/C [15]: 101 % of control

O=C(O)CC1(c2ccccc2)OC(=O)c2ccccc21 (centres undefined)
T/C [1]: 91 % of control | T/C [16]: 96 % of control | T/C [2]: 94 % of control | T/C [17]: 100 % of control | T/C [3]: 89 % of control

CSc1nc2c(c(=O)[nH]1)c1c(N)ncnc1n2C1OC(CO)C(O)C1O (centres undefined)
T/C (endpoint: mean survival time, dose: 25.0 mg/kg/injection, schedule: Q01DX005 (ip), vehicle: water): 88 % of control | T/C (endpoint: mean survival time, dose: 50.0 mg/kg/injection, schedule: Q01DX005 (ip), vehicle: water): 94 % of control | T/C (endpoint: mean survival time, dose: 100.0 mg/kg/injection, schedule: Q01DX005 (ip), vehicle: water): 88 % of control | T/C (endpoint: mean survival time, dose: 200.0 mg/kg/injection, schedule: Q01DX005 (ip), vehicle: water): 100 % of control

CC(=O)Oc1cc(Cl)c(Cl)cc1Cl
T/C [1]: 108 % of control | T/C [2]: 97 % of control | T/C [3]: 94 % of control

CCCCNCC(C)C(=O)OC (centres undefined)
T/C [9]: 98 % of control | T/C [10]: 98 % of control | T/C [11]: 102 % of control

O=C1NC(=O)C(=C/C=C/c2ccccc2)C(=O)N1
T/C [13]: 97 % of control | T/C [14]: 94 % of control | T/C [15]: 91 % of control and 103 % of control

CSc1nc(Cl)c2cc(C)[nH]c2n1
T/C [12]: 98 % of control | T/C (endpoint: median survival time, dose: 100.0 mg/kg/injection, schedule: Q01DX005 (ip), vehicle: saline): 100 % of control | T/C (endpoint: median survival time, dose: 200.0 mg/kg/injection, schedule: Q01DX005 (ip), vehicle: saline): 94 % of control

O=C(NO)c1ccncc1
T/C (endpoint: mean survival time, dose: 50.0 mg/kg/injection, schedule: Q01DX001 (ip), vehicle: saline): 106 % of control | T/C [4]: 103 % of control | T/C [18]: 102 % of control | T/C [8]: 91 % of control | T/C [5]: 110 % of control | T/C (endpoint: mean survival time, dose: 200.0 mg/kg/injection, schedule: Q01DX009 (ip), vehicle: saline): 104 % of control | T/C (endpoint: mean survival time, dose: 200.0 mg/kg/injection, schedule: Q04DX003 (ip), vehicle: saline): 94 % of control | T/C [6]: 97 % of control | T/C (endpoint: mean survival time, dose: 400.0 mg/kg/injection, schedule: Q01DX009 (ip), vehicle: saline): 107 % of control | T/C (endpoint: mean survival time, dose: 400.0 mg/kg/injection, schedule: Q04DX003 (ip), vehicle: saline): 94 % of control

O=C[C@@H](CO)O[C@H](C=O)c1c[nH]c(=O)[nH]c1=O
T/C (endpoint: median survival time, dose: 2.5 mg/kg/injection, schedule: Q01DX009 (ip), vehicle: saline): 118 % of control | T/C (endpoint: median survival time, dose: 7.5 mg/kg/injection, schedule: Q04DX003 (ip), vehicle: saline): 102 % of control | T/C (endpoint: median survival time, dose: 12.5 mg/kg/injection, schedule: Q01DX009 (ip), vehicle: water): 124 % of control | T/C (endpoint: median survival time, dose: 15.0 mg/kg/injection, schedule: Q04DX003 (ip), vehicle: saline): 102 % of control | T/C (endpoint: median survival time, dose: 30.0 mg/kg/injection, schedule: Q04DX003 (ip), vehicle: saline): 114 % of control | T/C (endpoint: median survival time, dose: 40.0 mg/kg/injection, schedule: Q01DX009 (ip), vehicle: saline): 158 % of control | T/C (endpoint: median survival time, dose: 50.0 mg/kg/injection, schedule: Q01DX009 (ip), vehicle: saline): 158 % of control | T/C (endpoint: median survival time, dose: 54.0 mg/kg/injection, schedule: Q04DX003 (ip), vehicle: saline): 156 % of control | T/C (endpoint: median survival time, dose: 60.0 mg/kg/injection, schedule: Q04DX003 (ip), vehicle: saline): 119 % of control | T/C (endpoint: median survival time, dose: 66.7 mg/kg/injection, schedule: Q04DX003 (ip), vehicle: saline): 151 % of control | T/C (endpoint: median survival time, dose: 90.0 mg/kg/injection, schedule: Q04DX003 (ip), vehicle: saline): 178 % of control | T/C (endpoint: median survival time, dose: 100.0 mg/kg/injection, schedule: Q01DX009 (ip), vehicle: water): 89 % of control | T/C (endpoint: median survival time, dose: 100.5 mg/kg/injection, schedule: Q04DX003 (ip), vehicle: saline): 164 % of control | T/C (endpoint: median survival time, dose: 105.0 mg/kg/injection, schedule: Q04DX003 (ip), vehicle: saline): 229 % of control | T/C (endpoint: median survival time, dose: 120.0 mg/kg/injection, schedule: Q04DX003 (ip), vehicle: saline): 175 % of control and 184 % of control | T/C (endpoint: median survival time, dose: 135.0 mg/kg/injection, schedule: Q04DX003 (ip), vehicle: saline): 164 % of control | T/C (endpoint: median survival time, dose: 165.0 mg/kg/injection, schedule: Q04DX003 (ip), vehicle: saline): 625 % of control | T/C (endpoint: median survival time, dose: 180.0 mg/kg/injection, schedule: Q04DX003 (ip), vehicle: saline): 218 % of control and 228 % of control | T/C (endpoint: median survival time, dose: 224.9 mg/kg/injection, schedule: Q04DX003 (ip), vehicle: saline): 202 % of control

O=C(CCCN1CCN2Cc3[nH]c4ccccc4c3CC2C1)c1ccc(F)cc1 (centres undefined)
T/C (endpoint: mean survival time, dose: 25.0 mg/kg/injection, schedule: Q04DX003 (ip), vehicle: saline with Tween-80): 101 % of control | T/C (endpoint: mean survival time, dose: 50.0 mg/kg/injection, schedule: Q04DX003 (ip), vehicle: saline with Tween-80): 107 % of control | T/C [9]: 103 % of control

CCOP(=O)(OCC)/C(C#N)=C\c1ccc(OC)c(OC)c1
T/C [16]: 98 % of control | T/C [17]: 94 % of control | T/C (endpoint: mean survival time, dose: 400.0 mg/kg/injection, schedule: Q01DX009 (ip), vehicle: saline with Tween-80): 100 % of control

Cc1ccc([N+](=O)[O-])cc1O
T/C (endpoint: mean survival time, dose: 25.0 mg/kg/injection, schedule: Q01DX009 (ip), vehicle: saline): 97 % of control | T/C (endpoint: mean survival time, dose: 50.0 mg/kg/injection, schedule: Q01DX009 (ip), vehicle: saline): 106 % of control | T/C [18]: 100 % of control

CC1(C)C=CC(=O)c2ccccc21
T/C [9]: 94 % of control | T/C [10]: 100 % of control | T/C [11]: 101 % of control

O=C(O)/C(=C\c1ccc(Br)cc1)c1ccc(C(F)(F)F)cc1[N+](=O)[O-]
T/C [7]: 89 % of control | T/C (endpoint: mean survival time, dose: 150.0 mg/kg/injection, schedule: Q04DX003 (ip), vehicle: saline): 101 % of control | T/C (endpoint: mean survival time, dose: 300.0 mg/kg/injection, schedule: Q04DX003 (ip), vehicle: saline): 100 % of control
